Data reported in patent US8349837B2, “Pharmaceutical composition comprising racemic aminopterin” (Aminopterin, LLC, priority 2009, dated 2013).

Assay: Pharmacokinetics and oral absorption in Beagle dogs
Settings: for Mean Plasma D-isomer: Beagle dogs N=10, oral capsule by gastric placement, 1 mg D-isomer
Experimental: Ten (N=10) Beagle dogs were enrolled in a pharmacokinetic study to examine the oral absorption of 1 tablet of the pure L-isomer tablet formulation (batch 116I0604), 1 mg of the D-isomer admixed with 99 mg microcrystalline cellulose, and 4 tablets of the racemic tablet formulation (batch 157I0907). Each formulation was encapsulated in a hard gelatin capsule and administered by direct gastric placement. Dosing of each formulation was separated by a 7 day washout period. The mean body weight of the ten dogs was 11.3±1.7 (SD) kilograms.
For pharmacokinetic analysis, venous blood samples with EDTA as anticoagulant were taken before each dosing and at 0.5, 1, 1.5, 2, 3, 6, 9 and 12 hours after each dosing. Samples were centrifuged, and the plasma collected and frozen for analysis. There was no urine sampling in this study. Aminopterin in plasma samples was quantitated by an achiral LC/MS assay (Advion Biosciences, Ithaca, N.Y.). The lower limit of quantitation (LLOQ) of the assay was 0.5 ng/ml or 1.2 nM. The amount of L-isomer and D-isomer in plasma samples from animals dosed with the racemate was determined using a chiral LC/MS assay.

[1] = Beagle dogs, oral, isomers given separately

| SMILES | Mean Plasma D-isomer (collection time 0.0 hr (before dosing)) | Mean Plasma D-isomer (collection time 0.5 hr) | Mean Plasma D-isomer (collection time 1.0 hr) | Mean Plasma D-isomer (collection time 1.5 hr) | Mean Plasma D-isomer (collection time 2.0 hr) | Mean Plasma D-isomer (collection time 3.0 hr) | Mean Plasma D-isomer (collection time 6.0 hr) | Mean Plasma D-isomer (collection time 9.0 hr) | Mean Plasma D-isomer (collection time 12.0 hr) | oral absorption when given separately [1] | systemic exposure relative to that of the L-isomer (AUC ratio) [1] |
| --- | --- | --- | --- | --- | --- | --- | --- | --- | --- | --- | --- |
| Nc1nc(N)c2nc(CNc3ccc(C(=O)N[C@H](CCC(=O)O)C(=O)O)cc3)cnc2n1 (single isomer, unassigned) [D-isomer] | 0.0000 µM | 0.0050 µM | 0.0117 µM | 0.0150 µM | 0.0152 µM | 0.0106 µM | 0.0034 µM | 0.0023 µM | 0.0026 µM | efficiently absorbed | approximately 30% |
| Nc1nc(N)c2nc(CNc3ccc(C(=O)N[C@@H](CCC(=O)O)C(=O)O)cc3)cnc2n1 [L-isomer] |  |  |  |  |  |  |  |  |  | efficiently absorbed |  |
